{"source": "patent US10759783B2", "about": "“Biaryl inhibitors of Bruton'S tyrosine kinase” (BIOGEN MA INC., priority 2013, dated 2020)", "key": {"[1]": {"molecular_target": "T1, BTK enzyme (Homo sapiens, UniProt Q06187)", "T1 construct": "purchased Upstate 14-552", "T1 sequence (Q06187 whole entry)": "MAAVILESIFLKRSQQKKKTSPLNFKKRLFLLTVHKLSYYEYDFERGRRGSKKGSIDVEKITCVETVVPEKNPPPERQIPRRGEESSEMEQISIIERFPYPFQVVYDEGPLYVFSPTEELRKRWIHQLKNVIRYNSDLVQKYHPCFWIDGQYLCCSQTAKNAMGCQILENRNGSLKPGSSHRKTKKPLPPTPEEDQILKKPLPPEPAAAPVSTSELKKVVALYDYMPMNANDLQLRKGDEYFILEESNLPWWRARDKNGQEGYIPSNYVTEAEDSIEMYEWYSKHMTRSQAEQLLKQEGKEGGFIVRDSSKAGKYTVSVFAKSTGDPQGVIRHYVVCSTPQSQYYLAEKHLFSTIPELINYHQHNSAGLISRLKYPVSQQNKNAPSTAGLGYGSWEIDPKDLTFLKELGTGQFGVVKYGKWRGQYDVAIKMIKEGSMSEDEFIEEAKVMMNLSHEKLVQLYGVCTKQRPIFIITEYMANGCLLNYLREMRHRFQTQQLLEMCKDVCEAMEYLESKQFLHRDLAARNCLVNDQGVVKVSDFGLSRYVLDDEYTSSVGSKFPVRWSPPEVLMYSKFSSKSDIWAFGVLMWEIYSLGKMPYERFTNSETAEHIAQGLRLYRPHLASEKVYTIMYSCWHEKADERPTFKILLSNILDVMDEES", "assay": "In vitro BTK kinase assay: BTK-POLYGAT-LS assay", "assay_type": "biochemical", "details": "ATP 10 μM, read-out: IC50 (10uMATP)", "summary_of_the_method": "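Human BTK activity was measured with final 10 μM ATP and 100 nM polyGAT substrate in pH 7.5 Tris buffer with 10 mM MgCl2, DTT, Triton X-100 and casein.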"}, "[2]": {"molecular_target": "BTK (phospho-BTK) in human whole blood (Homo sapiens, UniProt Q06187)", "sequence (Q06187 whole entry)": "as above", "assay": "In vitro PD assay in human whole blood (pBTK assay)"}}, "data": [{"smiles": "CC(C)C1CCN(C(=O)NC2CCCCc3cc(-c4ccnc(Nc5cnn(CCO)c5)n4)ccc32)C1", "note": "(centres unmarked) [Example I-181, N-(2-(2-((1-(2-hydroxyethyl)-1H-pyrazol-4-yl)amino)pyrimidin-4-yl)-6,7,8,9-tetrahydro-5H-benzo[7]annulen-5-yl)-3-isopropylpyrrolidine-1-carboxamide]", "values": [{"measurement": "IC50", "setting": "[1]", "result": "< 10", "unit": "nM"}, {"measurement": "IC50", "setting": "[2]", "result": "< 500", "unit": "nM"}]}, {"smiles": "CC(C)(C)OC1CN(C(=O)NC2CCCCc3cc(-c4ccnc(Nc5cnn6c5CCC6)n4)ccc32)C1", "note": "(centres unmarked) [Example I-182, 3-(tert-butoxy)-N-(2-(2-((5,6-dihydro-4H-pyrrolo [1,2-b]pyrazol-3-yl)amino)pyrimidin-4-yl)-6,7,8,9-tetrahydro-5H-benzo[7]annulen-5-yl)azetidine-1-carboxamide]", "values": [{"measurement": "IC50", "setting": "[1]", "result": "< 10", "unit": "nM"}, {"measurement": "IC50", "setting": "[2]", "result": "< 500", "unit": "nM"}]}, {"smiles": "COCCn1cc(Nc2nccc(-c3ccc4c(c3)CCCCC4NC(=O)N3CCC(C(C)C)C3)n2)cn1", "note": "(centres unmarked) [Example I-183, 3-Isopropyl-N-(2-(2-((1-(2-methoxyethyl)-1H-pyrazol-4-yl)amino)pyrimidin-4-yl)-6,7,8,9-tetrahydro-5H-benzo[7]annulen-5-yl)pyrrolidine-1-carboxamide]", "values": [{"measurement": "IC50", "setting": "[1]", "result": "< 10", "unit": "nM"}, {"measurement": "IC50", "setting": "[2]", "result": "< 500", "unit": "nM"}]}, {"smiles": "CC(C)(C)C1CCN(C(=O)NC2CCCCc3cc(-c4ccnc(Nc5cnn(CCO)c5)n4)ccc32)C1", "note": "(centres unmarked) [Example I-185, 3-(tert-butyl)-N-(2-(2-((1-(2-hydroxyethyl)-1H-pyrazol-4-yl)amino)pyrimidin-4-yl)-6,7,8,9-tetrahydro-5H-benzo[7]annulen-5-yl)pyrrolidine-1-carboxamide]", "values": [{"measurement": "IC50", "setting": "[1]", "result": "< 10", "unit": "nM"}, {"measurement": "IC50", "setting": "[2]", "result": "< 500", "unit": "nM"}]}, {"smiles": "COCCn1cc(Nc2nccc(-c3ccc4c(c3)CCCCC4NC(=O)N3CCC(C(C)(C)C)C3)n2)cn1", "note": "(centres unmarked) [Example I-186, 3-(tert-butyl)-N-(2-(2-((1-(2-methoxyethyl)-1H-pyrazol-4-yl)amino)pyrimidin-4-yl)-6,7,8,9-tetrahydro-5H-benzo[7]annulen-5-yl)pyrrolidine-1-carboxamide]", "values": [{"measurement": "IC50", "setting": "[1]", "result": "< 10", "unit": "nM"}, {"measurement": "IC50", "setting": "[2]", "result": "< 500", "unit": "nM"}]}, {"smiles": "CC(C)OC1CN(C(=O)NC2CCN(CC(F)(F)F)Cc3cc(-c4ccnc(Nc5cnn(C)c5)n4)ccc32)C1", "note": "(centres unmarked) [Example I-187, 3-isopropoxy-N-(8-(2-((1-methyl-1H-pyrazol-4-yl)amino)pyrimidin-4-yl)-2-(2,2,2-trifluoroethyl)-2,3,4,5-tetrahydro-1H-benzo[c]azepin-5-yl)azetidine-1-carboxamide]", "values": [{"measurement": "IC50", "setting": "[1]", "result": "< 10", "unit": "nM"}, {"measurement": "IC50", "setting": "[2]", "result": "< 500", "unit": "nM"}]}, {"smiles": "CC(C)OC1CN(C(=O)NC2CCN(C3COC3)Cc3cc(-c4ccnc(Nc5cnn(C)c5)n4)ccc32)C1", "note": "(centres unmarked) [Example I-188, 3-isopropoxy-N-(8-(2-((1-methyl-1H-pyrazol-4-yl)amino)pyrimidin-4-yl)-2-(oxetan-3-yl)-2,3,4,5-tetrahydro-1H-benzo[c]azepin-5-yl)azetidine-1-carboxamide]", "values": [{"measurement": "IC50", "setting": "[1]", "result": "< 10", "unit": "nM"}, {"measurement": "IC50", "setting": "[2]", "result": "500 to 1500", "unit": "nM"}]}, {"smiles": "Cn1cc(Nc2nccc(-c3ccc4c(c3)OCCCC4NC(=O)N3CC(OC(C)(C)C)C3)n2)cn1", "note": "(centres unmarked) [Example I-189, 3-(tert-butoxy)-N-(8-(2-((1-methyl-1H-pyrazol-4-yl)amino)pyrimidin-4-yl)-2,3,4,5-tetrahydrobenzo[b]oxepin-5-yl)azetidine-1-carboxamide]", "values": [{"measurement": "IC50", "setting": "[1]", "result": "< 10", "unit": "nM"}, {"measurement": "IC50", "setting": "[2]", "result": "< 500", "unit": "nM"}]}, {"smiles": "Cn1cc(Nc2nccc(-c3ccc(CNC(=O)N4CC(OC(C)(C)C)C4)c(CCO)c3)n2)cn1", "note": "[Example I-190, 3-(tert-butoxy)-N-(2-(2-hydroxyethyl)-4-(2-((1-methyl-1H-pyrazol-4-yl)amino)pyrimidin-4-yl)benzyl)azetidine-1-carboxamide]", "values": [{"measurement": "IC50", "setting": "[1]", "result": "< 10", "unit": "nM"}, {"measurement": "IC50", "setting": "[2]", "result": "< 500", "unit": "nM"}]}, {"smiles": "Cn1cc(Nc2nccc(-c3ccc(CNC(=O)c4cnn(C(C)(C)C)c4)c(CCO)c3)n2)cn1", "note": "[Example I-191, 1-(tert-butyl)-N-(2-(2-hydroxyethyl)-4-(2-((1-methyl-1H-pyrazol-4-yl)amino)pyrimidin-4-yl)benzyl)-1H-pyrazole-4-carboxamide]", "values": [{"measurement": "IC50", "setting": "[1]", "result": "< 10", "unit": "nM"}, {"measurement": "IC50", "setting": "[2]", "result": "< 500", "unit": "nM"}]}]}
